Laboratory results from paper PMC10449633 (Nature Chemical Biology, 2023).
Several values for one entry are separate records, joined by “and”; a condition that tells them apart may be missing. Equal values may be shown once. Read-outs that look alike come from different tables or passages of the source. Square brackets hold non-standard residues; d marks the D form. Peptide text beside a SMILES is read from it. NMeTrp(1-(4-Br-benzyl)) = CN[C@@H](Cc1cn(Cc2ccc(Br)cc2)c2ccccc12)C(=O)O; Butanoyl(2R-oxy,4-CN) = N#CCC[C@@H](O)C(=O)O; Abu(4,4,4-F3) = N[C@@H](CC(F)(F)F)C(=O)O; NMeL = CN[C@@H](CC(C)C)C(=O)O; NMeA = CN[C@@H](C)C(=O)O

What was measured:
Sec61 [1] = molecular target: T1, Sec61 (Homo sapiens, UniProt P61619); assay: cell-based
T1 construct: endogenous in cells
Target sequence in this assay (P60059 whole entry): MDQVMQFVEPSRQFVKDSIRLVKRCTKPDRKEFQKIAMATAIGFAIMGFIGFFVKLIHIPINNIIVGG
Target sequence in this assay (P61619 whole entry): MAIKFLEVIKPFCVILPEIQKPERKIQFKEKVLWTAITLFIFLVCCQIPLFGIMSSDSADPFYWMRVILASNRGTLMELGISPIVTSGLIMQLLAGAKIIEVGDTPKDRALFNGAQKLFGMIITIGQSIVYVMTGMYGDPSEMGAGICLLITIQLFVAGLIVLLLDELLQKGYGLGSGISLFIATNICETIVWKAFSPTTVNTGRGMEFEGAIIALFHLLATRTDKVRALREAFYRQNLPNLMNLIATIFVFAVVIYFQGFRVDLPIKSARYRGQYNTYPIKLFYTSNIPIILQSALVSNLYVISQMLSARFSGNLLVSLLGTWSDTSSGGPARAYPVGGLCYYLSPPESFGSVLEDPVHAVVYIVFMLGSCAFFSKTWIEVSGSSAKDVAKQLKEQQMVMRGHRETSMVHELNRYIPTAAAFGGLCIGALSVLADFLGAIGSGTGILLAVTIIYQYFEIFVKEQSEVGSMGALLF
Target sequence in this assay (P60468 whole entry, further chain): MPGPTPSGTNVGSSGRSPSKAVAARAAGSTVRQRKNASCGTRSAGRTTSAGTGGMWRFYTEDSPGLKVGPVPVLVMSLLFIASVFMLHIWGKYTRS

Sec61 [2] = molecular target: T1, Sec61; assay: signal peptide-GLuc (SP-GLuc) reporter panel, 89 constructs; assay type: cell-based; settings: read-out: IC50
Excerpt: The heat map depicts IC50 values calculated from each SP-GLuc dose–response curve. d, Arthritis was induced in BALB/c mice with antibodies specific for type II collagen (mAb) on day 0 and endotoxin on day 3. On day 4, when the disease was present in all animals, mice were randomized and treated for 2 weeks with thrice weekly (QODx3) or weekly (QW) intravenous administration of vehicle or KZR-8445 or intraperitoneal administration of dexamethasone. Clinical scores (0–4 per paw; n = 10 per group) and body weights were followed until day 14. Data are presented as mean values ± s.d. mAb, monoclonal antibody. Source data
To investigate the effects of KZR-8445 on secretory and membrane protein biogenesis and to establish Sec61α as the relevant target, we quantified the secretion of a doxycycline-inducible Gaussia luciferase (GLuc) reporter fused to the C-terminus of two full-length pro-inflammatory cytokines, interleukin-2 (IL-2) (which contains a cleavable signal peptide) and tumor necrosis factor-alpha (TNFα) (which contains an N-terminal transmembrane anchor). […] KZR-8445 is structurally related to CT8, which discriminates among Sec61 clients based largely on their N-terminal signal peptide. […] We also directly compared KZR-8445 to mycolactone A/B, a structurally distinct and relatively client-nonselective Sec61 inhibitor[8],[25], for their ability to discriminate between vascular cell adhesion molecule (VCAM) and preprolactin (pPL) signal peptides.
Target sequence in this assay (P61619 whole entry): as the sequence (P61619 whole entry) above
Target sequence in this assay (P60059 whole entry, further chain): as the sequence (P60059 whole entry) above
Target sequence in this assay (P60468 whole entry, further chain): as the sequence (P60468 whole entry, further chain) above

## CC(C)C[C@@H]1NC(=O)[C@H](Cc2cn(Cc3ccc(Br)cc3)c3ccccc23)N(C)C(=O)[C@H](CC(F)(F)F)NC(=O)[C@H](CC(C)C)N(C)C(=O)[C@H](CC(F)(F)F)NC(=O)[C@@H](CCC#N)OC(=O)[C@H](C)N(C)C1=O [KZR-0508445] (cyclo(L[NMeA][Butanoyl(2R-oxy,4-CN)][Abu(4,4,4-F3)][NMeL][Abu(4,4,4-F3)][NMeTrp(1-(4-Br-benzyl))]))
Sec61 [1]; HER3, Concentration 0.32
  GLuc reporter raw signal (replicates): 2935000 and 2941500 and 3013900
Sec61 [1]; HER3, Concentration 8
  GLuc reporter raw signal (replicates): 2659500 and 2842600
Sec61 [1]; HER3, Concentration 40
  GLuc reporter raw signal (replicates): 1960600 and 2026300 and 1990500
Sec61 [1]; HER3, Concentration 200
  GLuc reporter raw signal (replicates): 739710 and 740510 and 713180
Sec61 [1]; HER3, Concentration 1000
  GLuc reporter raw signal (replicates): 117630 and 116630 and 119290
Sec61 [1]; HER3, Concentration 5000
  GLuc reporter raw signal (replicates): 40623 and 42704 and 41387
Sec61 [1]; HER3, Concentration 25000
  GLuc reporter raw signal (replicates): 40492 and 42302 and 41156
Sec61 [1]; IL2, Concentration 0.32
  GLuc reporter raw signal (replicates): 2694100 and 2451600 and 2682900
Sec61 [1]; IL2, Concentration 8
  GLuc reporter raw signal (replicates): 2155800 and 2012200 and 2217000
Sec61 [1]; IL2, Concentration 40
  GLuc reporter raw signal (replicates): 1384000 and 1357800 and 1362400
Sec61 [1]; IL2, Concentration 200
  GLuc reporter raw signal (replicates): 418080 and 431560 and 427460
Sec61 [1]; IL2, Concentration 1000
  GLuc reporter raw signal (replicates): 69620 and 75099 and 80209
Sec61 [1]; IL2, Concentration 5000
  GLuc reporter raw signal (replicates): 24453 and 26590 and 27282
Sec61 [1]; IL2, Concentration 25000
  GLuc reporter raw signal (replicates): 27001 and 26299 and 26941
Sec61 [1]; PD1, Concentration 0.32
  GLuc reporter raw signal (replicates): 1085300 and 1145000 and 1139600
Sec61 [1]; PD1, Concentration 8
  GLuc reporter raw signal (replicates): 871620 and 904180 and 884200
Sec61 [1]; PD1, Concentration 40
  GLuc reporter raw signal (replicates): 505580 and 506170 and 515230
Sec61 [1]; PD1, Concentration 200
  GLuc reporter raw signal (replicates): 149930 and 159870 and 181940
Sec61 [1]; PD1, Concentration 1000
  GLuc reporter raw signal (replicates): 25647 and 33346 and 33065
Sec61 [1]; PD1, Concentration 5000
  GLuc reporter raw signal (replicates): 10483 and 12045 and 12165
Sec61 [1]; PD1, Concentration 25000
  GLuc reporter raw signal (replicates): 10613 and 11144 and 10202
Sec61 [1]; Prolactin, Concentration 0.32
  GLuc reporter raw signal (replicates): 9123600 and 9441100 and 9520300
Sec61 [1]; Prolactin, Concentration 40
  GLuc reporter raw signal (replicates): 8673700 and 8850000 and 8412700
Sec61 [1]; Prolactin, Concentration 200
  GLuc reporter raw signal (replicates): 7415400 and 7981400 and 8354800
Sec61 [1]; Prolactin, Concentration 1000
  GLuc reporter raw signal (replicates): 4269000 and 4043400 and 4397300
Sec61 [1]; Prolactin, Concentration 5000
  GLuc reporter raw signal (replicates): 1501600 and 1605300 and 3990200
Sec61 [1]; Prolactin, Concentration 25000
  GLuc reporter raw signal (replicates): 1205700 and 1279300 and 1375600
Sec61 [1]; TNFa, Concentration 0.32
  GLuc reporter raw signal (replicates): 190530 and 188640 and 185180
Sec61 [1]; TNFa, Concentration 8
  GLuc reporter raw signal (replicates): 168690 and 159800
Sec61 [1]; TNFa, Concentration 40
  GLuc reporter raw signal (replicates): 128960 and 129480 and 142690
Sec61 [1]; TNFa, Concentration 200
  GLuc reporter raw signal (replicates): 58379 and 60837 and 65010
Sec61 [1]; TNFa, Concentration 1000
  GLuc reporter raw signal (replicates): 21193 and 19058 and 21945
Sec61 [1]; TNFa, Concentration 5000
  GLuc reporter raw signal (replicates): 10351 and 10241 and 10171
Sec61 [1]; TNFa, Concentration 25000
  GLuc reporter raw signal (replicates): 9540 and 9711 and 9400
Sec61 [2]; ADPGK signal peptide-GLuc reporter
  IC50: 540 nM
Sec61 [2]; ANGPTL3 signal peptide-GLuc reporter
  IC50: 49.4 nM
Sec61 [2]; APOC1 signal peptide-GLuc reporter
  IC50: 135 nM
Sec61 [2]; APP signal peptide-GLuc reporter
  IC50: 449 nM
Sec61 [2]; AXL signal peptide-GLuc reporter
  IC50: 13.8 nM
Sec61 [2]; BCAN signal peptide-GLuc reporter
  IC50: 142 nM
Sec61 [2]; C1S signal peptide-GLuc reporter
  IC50: 383 nM
Sec61 [2]; CALCA signal peptide-GLuc reporter
  IC50: 721 nM
Sec61 [2]; CALCB signal peptide-GLuc reporter
  IC50: 972 nM
Sec61 [2]; CD40 signal peptide-GLuc reporter
  IC50: 11300 nM
Sec61 [2]; CD47 signal peptide-GLuc reporter
  IC50: 373 nM
Sec61 [2]; CD96 signal peptide-GLuc reporter
  IC50: 29.2 nM
Sec61 [2]; CD274 signal peptide-GLuc reporter
  IC50: 93.3 nM
Sec61 [2]; CDH1 signal peptide-GLuc reporter
  IC50: 811 nM
Sec61 [2]; CDH2 signal peptide-GLuc reporter
  IC50: 15.5 nM
Sec61 [2]; CDH5 signal peptide-GLuc reporter
  IC50: 76 nM
Sec61 [2]; CNPY2 signal peptide-GLuc reporter
  IC50: 394 nM
Sec61 [2]; CPD signal peptide-GLuc reporter
  IC50: 694 nM
Sec61 [2]; CR1L signal peptide-GLuc reporter
  IC50: 61.3 nM
Sec61 [2]; CSF2RB signal peptide-GLuc reporter
  IC50: 652 nM
Sec61 [2]; CTLA4 signal peptide-GLuc reporter
  IC50: 343 nM
Sec61 [2]; DDRGK1 signal peptide-GLuc reporter
  IC50: 1850 nM
Sec61 [2]; DMKN signal peptide-GLuc reporter
  IC50: 2630 nM
Sec61 [2]; DNAJB11 signal peptide-GLuc reporter
  IC50: 4360 nM
Sec61 [2]; ERBB2 signal peptide-GLuc reporter
  IC50: 536 nM
Sec61 [2]; F3 signal peptide-GLuc reporter
  IC50: 162 nM
Sec61 [2]; FGF23 signal peptide-GLuc reporter
  IC50: 28.2 nM
Sec61 [2]; FLT3 signal peptide-GLuc reporter
  IC50: 360 nM
Sec61 [2]; FNDC10 signal peptide-GLuc reporter
  IC50: 726 nM
Sec61 [2]; FURIN signal peptide-GLuc reporter
  IC50: 4740 nM
Sec61 [2]; GAS6 signal peptide-GLuc reporter
  IC50: 118 nM
Sec61 [2]; HJV signal peptide-GLuc reporter
  IC50: 427 nM
Sec61 [2]; HLA-G signal peptide-GLuc reporter
  IC50: 39.2 nM
Sec61 [2]; HSPA13 signal peptide-GLuc reporter
  IC50: 1110 nM
Sec61 [2]; IGF1R signal peptide-GLuc reporter
  IC50: 814 nM
Sec61 [2]; IL1RAP signal peptide-GLuc reporter
  IC50: 101 nM
Sec61 [2]; IL4R signal peptide-GLuc reporter
  IC50: 32 nM
Sec61 [2]; IL4 signal peptide-GLuc reporter
  IC50: 359 nM
Sec61 [2]; IL5RA signal peptide-GLuc reporter
  IC50: 1320 nM
Sec61 [2]; IL5 signal peptide-GLuc reporter
  IC50: 1300 nM
Sec61 [2]; IL6R signal peptide-GLuc reporter
  IC50: 92.3 nM
Sec61 [2]; IL6ST signal peptide-GLuc reporter
  IC50: 56.5 nM
Sec61 [2]; IL6 signal peptide-GLuc reporter
  IC50: 155 nM
Sec61 [2]; IL7 signal peptide-GLuc reporter
  IC50: 5.23 nM
Sec61 [2]; IL10 signal peptide-GLuc reporter
  IC50: 434 nM
Sec61 [2]; IL11 signal peptide-GLuc reporter
  IC50: 183 nM
Sec61 [2]; IL12B signal peptide-GLuc reporter
  IC50: 109 nM
Sec61 [2]; IL12RB1 signal peptide-GLuc reporter
  IC50: 64.4 nM
Sec61 [2]; IL13 signal peptide-GLuc reporter
  IC50: 59.1 nM
Sec61 [2]; IL15RA signal peptide-GLuc reporter
  IC50: 294 nM
Sec61 [2]; IL15 signal peptide-GLuc reporter
  IC50: 116 nM
Sec61 [2]; IL17A signal peptide-GLuc reporter
  IC50: 318 nM
Sec61 [2]; IL17F signal peptide-GLuc reporter
  IC50: 228 nM
Sec61 [2]; IL17RA signal peptide-GLuc reporter
  IC50: 408 nM
Sec61 [2]; IL23A signal peptide-GLuc reporter
  IC50: 425 nM
Sec61 [2]; IL23R signal peptide-GLuc reporter
  IC50: 366 nM
Sec61 [2]; ITGA3 signal peptide-GLuc reporter
  IC50: 18300 nM
Sec61 [2]; ITGB3 signal peptide-GLuc reporter
  IC50: 106 nM
Sec61 [2]; ITGB5 signal peptide-GLuc reporter
  IC50: 89.1 nM
Sec61 [2]; ITGB7 signal peptide-GLuc reporter
  IC50: 228 nM
Sec61 [2]; JTB signal peptide-GLuc reporter
  IC50: 25.5 nM
Sec61 [2]; KRTDAP signal peptide-GLuc reporter
  IC50: 570 nM
Sec61 [2]; LCN6 signal peptide-GLuc reporter
  IC50: 101 nM
Sec61 [2]; LDLR signal peptide-GLuc reporter
  IC50: 800 nM
Sec61 [2]; LILRB2 signal peptide-GLuc reporter
  IC50: 1730 nM
Sec61 [2]; LRP8 signal peptide-GLuc reporter
  IC50: 681 nM
Sec61 [2]; MASP2 signal peptide-GLuc reporter
  IC50: 127 nM
Sec61 [2]; METTL7A signal peptide-GLuc reporter
  IC50: 6900 nM
Sec61 [2]; NGF signal peptide-GLuc reporter
  IC50: 347 nM
Sec61 [2]; P3H1 signal peptide-GLuc reporter
  IC50: 72.7 nM
Sec61 [2]; PCDHA4 signal peptide-GLuc reporter
  IC50: 489 nM
Sec61 [2]; PCSK9 signal peptide-GLuc reporter
  IC50: 1280 nM
Sec61 [2]; PDCD1 signal peptide-GLuc reporter
  IC50: 37 nM
Sec61 [2]; PRKCSH signal peptide-GLuc reporter
  IC50: 186 nM
Sec61 [2]; PSG8 signal peptide-GLuc reporter
  IC50: 292 nM
Sec61 [2]; SIRPA signal peptide-GLuc reporter
  IC50: 2030 nM
Sec61 [2]; SSR2 signal peptide-GLuc reporter
  IC50: 137 nM
Sec61 [2]; STAB1 signal peptide-GLuc reporter
  IC50: 670 nM
Sec61 [2]; SUCO signal peptide-GLuc reporter
  IC50: 1450 nM
Sec61 [2]; TGFB1 signal peptide-GLuc reporter
  IC50: 2210 nM
Sec61 [2]; TGFB2 signal peptide-GLuc reporter
  IC50: 187 nM
Sec61 [2]; TGFBR1 signal peptide-GLuc reporter
  IC50: 134 nM
Sec61 [2]; TIGIT signal peptide-GLuc reporter
  IC50: 590 nM
Sec61 [2]; TMED10 signal peptide-GLuc reporter
  IC50: 462 nM
Sec61 [2]; UCN signal peptide-GLuc reporter
  IC50: 5900 nM
